Reference: the NIST ThermoML archive (doi:10.1021/je200038n)
Numbers after ± are expanded uncertainties.

Experiments:
[1] = wn = mass fraction of the nth substance listed; details: 3000 kPa, Liquid; for mass density: Vibrating tube method; for viscosity: Moving piston method
[2] = molar heat capacity at constant pressure; wn = mass fraction of the nth substance listed; details: 3000 kPa, Liquid, Flow calorimetry

Structure (SMILES): N#C[S-].[Na+] [sodium thiocyanate] + N
- mass density ([1]; 312.4 K, w2 = 0.797): 724.2 ± 2 kg/m3
- mass density ([1]; 312.4 K, w2 = 0.8921): 648.1 ± 2.1 kg/m3
- viscosity ([1]; 316.8 K, w2 = 0.797): 0.23 ± 0.05 mPa·s
- viscosity ([1]; 317 K, w2 = 0.614): 0.62 ± 0.05 mPa·s
- viscosity ([1]; 317 K, w2 = 0.6824): 0.4 ± 0.05 mPa·s
- mass density ([1]; 317 K, w2 = 0.614): 857.4 ± 2 kg/m3
- viscosity ([1]; 317.1 K, w2 = 0.4998): 1.15 ± 0.05 mPa·s
- mass density ([1]; 317.1 K, w2 = 0.797): 718.9 ± 2 kg/m3
- mass density ([1]; 317.2 K, w2 = 0.4998): 929.3 ± 2 kg/m3
- mass density ([1]; 317.2 K, w2 = 0.6824): 807 ± 2 kg/m3
- viscosity ([1]; 321.5 K, w2 = 0.797): 0.22 ± 0.05 mPa·s
- viscosity ([1]; 321.6 K, w2 = 0.8921): 0.15 ± 0.05 mPa·s
- viscosity ([1]; 321.7 K, w2 = 0.614): 0.57 ± 0.05 mPa·s
- viscosity ([1]; 321.7 K, w2 = 0.6824): 0.38 ± 0.05 mPa·s
- viscosity ([1]; 321.8 K, w2 = 0.4998): 1.06 ± 0.05 mPa·s
- mass density ([1]; 321.8 K, w2 = 0.614): 852.4 ± 2 kg/m3
- mass density ([1]; 321.8 K, w2 = 0.797): 713.6 ± 2 kg/m3
- mass density ([1]; 321.9 K, w2 = 0.4998): 925.5 ± 2 kg/m3
- mass density ([1]; 321.9 K, w2 = 0.6824): 800.5 ± 2 kg/m3
- mass density ([1]; 322 K, w2 = 0.8921): 635.4 ± 2.1 kg/m3
- viscosity ([1]; 326.4 K, w2 = 0.797): 0.21 ± 0.05 mPa·s
- viscosity ([1]; 326.5 K, w2 = 0.614): 0.53 ± 0.05 mPa·s
- viscosity ([1]; 326.5 K, w2 = 0.6824): 0.36 ± 0.05 mPa·s
- viscosity ([1]; 326.6 K, w2 = 0.4998): 1 ± 0.05 mPa·s
- mass density ([1]; 326.6 K, w2 = 0.614): 846.9 ± 2 kg/m3
- mass density ([1]; 326.6 K, w2 = 0.797): 708.4 ± 2 kg/m3
- mass density ([1]; 326.7 K, w2 = 0.4998): 921.4 ± 2 kg/m3
- mass density ([1]; 326.7 K, w2 = 0.6824): 795 ± 2 kg/m3
- viscosity ([1]; 331 K, w2 = 0.8921): 0.13 ± 0.05 mPa·s
- viscosity ([1]; 331.1 K, w2 = 0.797): 0.2 ± 0.05 mPa·s
- viscosity ([1]; 331.2 K, w2 = 0.614): 0.51 ± 0.05 mPa·s
- viscosity ([1]; 331.2 K, w2 = 0.6824): 0.35 ± 0.05 mPa·s
- viscosity ([1]; 331.4 K, w2 = 0.4998): 0.92 ± 0.05 mPa·s
- mass density ([1]; 331.4 K, w2 = 0.614): 843.1 ± 2 kg/m3
- mass density ([1]; 331.4 K, w2 = 0.6824): 792 ± 2 kg/m3
- mass density ([1]; 331.4 K, w2 = 0.797): 701 ± 2.1 kg/m3
- mass density ([1]; 331.5 K, w2 = 0.4998): 917.4 ± 2 kg/m3
- viscosity ([1]; 335.7 K, w2 = 0.797): 0.19 ± 0.05 mPa·s
- viscosity ([1]; 336 K, w2 = 0.6824): 0.33 ± 0.05 mPa·s
- viscosity ([1]; 336.1 K, w2 = 0.614): 0.47 ± 0.05 mPa·s
- mass density ([1]; 336.2 K, w2 = 0.614): 838.1 ± 2 kg/m3
- mass density ([1]; 336.2 K, w2 = 0.797): 692.7 ± 2.1 kg/m3
- viscosity ([1]; 336.3 K, w2 = 0.4998): 0.87 ± 0.05 mPa·s
- mass density ([1]; 336.3 K, w2 = 0.4998): 913.3 ± 2 kg/m3
- mass density ([1]; 336.3 K, w2 = 0.6824): 783.1 ± 2.1 kg/m3
- viscosity ([1]; 340.6 K, w2 = 0.797): 0.18 ± 0.05 mPa·s
- viscosity ([1]; 340.8 K, w2 = 0.614): 0.46 ± 0.05 mPa·s
- viscosity ([1]; 340.8 K, w2 = 0.6824): 0.31 ± 0.05 mPa·s
- mass density ([1]; 341 K, w2 = 0.797): 686.7 ± 2 kg/m3
- viscosity ([1]; 341.1 K, w2 = 0.4998): 0.82 ± 0.05 mPa·s
- mass density ([1]; 341.1 K, w2 = 0.614): 832.6 ± 2 kg/m3
- mass density ([1]; 341.1 K, w2 = 0.6824): 775.2 ± 2 kg/m3
- mass density ([1]; 341.2 K, w2 = 0.4998): 909.2 ± 2 kg/m3
- viscosity ([1]; 345.6 K, w2 = 0.614): 0.43 ± 0.05 mPa·s
- viscosity ([1]; 345.9 K, w2 = 0.4998): 0.77 ± 0.05 mPa·s
- mass density ([1]; 346 K, w2 = 0.4998): 905.1 ± 2.6 kg/m3
- mass density ([1]; 346 K, w2 = 0.614): 826.5 ± 2.6 kg/m3
- viscosity ([1]; 350.2 K, w2 = 0.614): 0.4 ± 0.05 mPa·s
- viscosity ([1]; 350.4 K, w2 = 0.4998): 0.73 ± 0.05 mPa·s
- mass density ([1]; 350.9 K, w2 = 0.4998): 900.9 ± 2.6 kg/m3
- viscosity ([1]; 359.7 K, w2 = 0.4998): 0.65 ± 0.05 mPa·s
- viscosity ([1]; 369.5 K, w2 = 0.4998): 0.58 ± 0.05 mPa·s
- molar heat capacity at constant pressure ([2]; 304.17 K, w2 = 0.4992): 63.48 ± 0.84 J/K/mol
- molar heat capacity at constant pressure ([2]; 304.17 K, w2 = 0.5988): 72.55 ± 0.75 J/K/mol
- molar heat capacity at constant pressure ([2]; 304.17 K, w2 = 0.7013): 76.74 ± 0.69 J/K/mol
- molar heat capacity at constant pressure ([2]; 304.17 K, w2 = 0.9): 81.53 ± 0.57 J/K/mol
- molar heat capacity at constant pressure ([2]; 314.14 K, w2 = 0.4992): 64.61 ± 0.84 J/K/mol
- molar heat capacity at constant pressure ([2]; 314.14 K, w2 = 0.5988): 72.3 ± 0.75 J/K/mol
- molar heat capacity at constant pressure ([2]; 314.14 K, w2 = 0.7013): 77.73 ± 0.69 J/K/mol
- molar heat capacity at constant pressure ([2]; 314.14 K, w2 = 0.7961): 81.14 ± 0.63 J/K/mol
- molar heat capacity at constant pressure ([2]; 314.14 K, w2 = 0.9): 81.93 ± 0.57 J/K/mol
- molar heat capacity at constant pressure ([2]; 324.11 K, w2 = 0.4992): 64.64 ± 0.84 J/K/mol
- molar heat capacity at constant pressure ([2]; 324.11 K, w2 = 0.5988): 72.13 ± 0.75 J/K/mol
- molar heat capacity at constant pressure ([2]; 324.11 K, w2 = 0.7013): 77.86 ± 0.69 J/K/mol
- molar heat capacity at constant pressure ([2]; 324.11 K, w2 = 0.7961): 82.16 ± 0.63 J/K/mol
- molar heat capacity at constant pressure ([2]; 324.11 K, w2 = 0.9): 83.77 ± 0.57 J/K/mol
- molar heat capacity at constant pressure ([2]; 334.09 K, w2 = 0.4992): 65.26 ± 0.84 J/K/mol
- molar heat capacity at constant pressure ([2]; 334.09 K, w2 = 0.5988): 72.48 ± 0.75 J/K/mol
- molar heat capacity at constant pressure ([2]; 334.09 K, w2 = 0.7013): 78.17 ± 0.69 J/K/mol
- molar heat capacity at constant pressure ([2]; 334.09 K, w2 = 0.7961): 82.8 ± 0.63 J/K/mol
- molar heat capacity at constant pressure ([2]; 334.09 K, w2 = 0.9): 85.93 ± 0.57 J/K/mol
- molar heat capacity at constant pressure ([2]; 344.07 K, w2 = 0.4992): 65.94 ± 0.84 J/K/mol
- molar heat capacity at constant pressure ([2]; 344.07 K, w2 = 0.5988): 73.3 ± 0.75 J/K/mol
- molar heat capacity at constant pressure ([2]; 344.07 K, w2 = 0.7013): 79.2 ± 0.69 J/K/mol
- molar heat capacity at constant pressure ([2]; 354.06 K, w2 = 0.4992): 67.29 ± 0.84 J/K/mol
- molar heat capacity at constant pressure ([2]; 354.06 K, w2 = 0.5988): 74.12 ± 0.75 J/K/mol
- molar heat capacity at constant pressure ([2]; 364.15 K, w2 = 0.4992): 70.3 ± 0.84 J/K/mol
